Consider five compounds from ChEMBL document CHEMBL1140084, “Discovery and evaluation of 4-(2-(4-chloro-1H-pyrazol-1-yl)ethylamino)-3-(6-(1-(3-fluoropropyl)piperidin-4-yl)-4-methyl-1H-benzo[d]imidazol-2-yl)pyridin-2(1H)-one (BMS-695735), an orally efficacious inhibitor of insulin-like growth factor-1 receptor kinase with broad spectrum in vivo antitumor …” (J Med Chem, 2008).

In general, IC50 refers to the concentration needed to halve the response being measured. In general, EC20 refers to the concentration at which the effect reaches the 20% level. Higher therefore signals weaker potency. What is called AUC is concentration integrated over time. Low readings indicate less exposure, high ones more exposure. By Papp is commonly meant the rate of passage across a membrane or cell layer, normalised by area and donor concentration.

Structures are written as SMILES.

Data set [1] deals with Cytochrome P450 3A4 (Homo sapiens, UniProt P08684). The data set can be described thus: Inhibition of human recombinant CYP3A4 in human liver microsomes using BFC as a substrate. For orientation: Liver microsomes are a subcellular fraction often used to study metabolism.
A short description of data set [2]: Antiproliferative activity against transgenic mouse SAL cells overexpressing human IGF1R assessed as [3H]thymidine incorporation after 72 hrs. (Incorporation of labelled thymidine or its analogues reports DNA synthesis.)
In data set [3] the target is T1, Nuclear receptor subfamily 1 group I member 2 (Homo sapiens, UniProt O75469).
T1 sequence (O75469 whole entry): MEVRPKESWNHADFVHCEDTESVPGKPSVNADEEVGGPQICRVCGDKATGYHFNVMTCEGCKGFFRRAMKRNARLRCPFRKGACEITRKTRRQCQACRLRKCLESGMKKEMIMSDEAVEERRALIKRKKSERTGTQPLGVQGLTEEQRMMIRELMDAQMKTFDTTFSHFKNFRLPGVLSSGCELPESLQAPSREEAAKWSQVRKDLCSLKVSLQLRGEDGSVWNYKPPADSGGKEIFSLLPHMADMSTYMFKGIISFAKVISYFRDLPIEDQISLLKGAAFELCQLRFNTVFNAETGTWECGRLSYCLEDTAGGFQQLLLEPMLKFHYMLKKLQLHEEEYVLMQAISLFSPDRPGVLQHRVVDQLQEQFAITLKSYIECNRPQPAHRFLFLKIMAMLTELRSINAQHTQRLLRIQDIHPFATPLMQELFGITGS
Briefly: Induction of PXR transactivation.

Data set [4] can be described thus: AUC in mouse at 20 mg/kg after 4 hrs. The data set is classed as ADME, organism-based. To be noted: plasma. Further details: time < 4 hr, dose 20 mg/kg.
A short description of data set [5]: Protein binding in mouse plasma at 10 uM by equilibrium dialysis. The note with it: read-out: PPB (converted). The data set is classed as ADME, cell-free.
Data set [6] in a line: Apparent permeability across human CaCo2 cells. The data set is classed as ADME, cell-based. To be noted: Caco-2. On the technique in general: Passage across Caco-2 layers is used to estimate intestinal permeability.
In data set [7] the test system is Hepatocyte. The data set can be described thus: Increase in CYP3A4 mRNA expression level in human hepatocytes. The data set is classed as functional, cell-based.
Data set [8] is described as follows: Protein binding in human plasma at 10 uM. The note with it: read-out: PPB. The format is ADME, cell-free.
Data set [9] has as its target PXR (nuclear receptor subfamily 1 group I member 2) (Homo sapiens, UniProt O75469). Briefly: Induction of PXR transactivation at 10 uM relative to rifampicin. To be noted: read-out: Activity.

Cytochrome P450 3A4, sequence (P08684 whole entry): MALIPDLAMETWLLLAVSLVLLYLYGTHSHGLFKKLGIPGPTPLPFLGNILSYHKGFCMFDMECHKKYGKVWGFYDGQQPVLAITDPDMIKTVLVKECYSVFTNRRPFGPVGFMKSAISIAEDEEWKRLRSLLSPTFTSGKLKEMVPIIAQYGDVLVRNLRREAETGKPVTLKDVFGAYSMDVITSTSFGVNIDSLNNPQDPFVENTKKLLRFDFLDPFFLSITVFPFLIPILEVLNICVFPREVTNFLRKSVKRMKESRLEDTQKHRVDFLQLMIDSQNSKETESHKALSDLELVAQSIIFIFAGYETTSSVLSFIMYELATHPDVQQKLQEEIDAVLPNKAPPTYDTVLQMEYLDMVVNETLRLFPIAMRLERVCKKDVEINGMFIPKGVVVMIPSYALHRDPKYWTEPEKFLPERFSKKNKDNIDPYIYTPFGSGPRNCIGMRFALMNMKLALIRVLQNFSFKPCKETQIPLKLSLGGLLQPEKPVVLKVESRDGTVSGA

`Cc1cc(C2CCN(CCO)CC2)cc2[nH]c(-c3c(NCCn4cc(Cl)cn4)cc[nH]c3=O)nc12`: the IC50 in data set [1] was found to be 23 µM; in data set [2], 0.241 µM. The compound further registered an EC20 in data set [3] of more than 50 µM. For the same compound, the AUC at 4 h in data set [4] was determined as 0.1 µM·h.

As to `Cc1cc(C2CCN(C)CC2)cc2[nH]c(-c3c(NC[C@@H](O)c4cccc(Cl)c4)cc[nH]c3=O)nc12`, the IC50 in data set [1] stood at 14 µM; in [2] it was 0.085 µM. Besides, the EC20 in [3] was more than 50 µM. Also, the AUC at 4 h in [4] stood at 1.2 µM·h.

Take `COCCN1CCC(c2cc(C)c3nc(-c4c(NC[C@@H](O)c5cccc(Cl)c5)cc[nH]c4=O)[nH]c3c2)CC1`: the IC50 turned out to be 11 µM in [1] and 0.217 µM in data set [2]. In [3], this compound displayed an EC20 of more than 50 µM.

Turning to `COCCN1CCC(c2cc(C)c3nc(-c4c(NC[C@@H](O)c5ccc(OC)c(Cl)c5)cc[nH]c4=O)[nH]c3c2)CC1`, the results for the IC50 in data set [1] and in data set [2] were 7.7 µM and 0.013 µM, respectively. Besides, the EC20 in data set [3] is more than 50 µM. In addition, in data set [4], the AUC at 4 h amounted to 0.49 µM·h.

For `Cc1cc(N2CCOCC2)cc2[nH]c(-c3c(NC[C@@H](O)c4cccc(Cl)c4)cc[nH]c3=O)nc12`, the fraction unbound at 10 µM is less than 0.001 in data set [5] and less than 0.002 in [8]. Further, the Papp in data set [6] came out at 1.8 ×10⁻⁶ cm/s. Moreover, in data set [7], the Activity result is “Dose-dependent effect”. The activity at 10 µM in data set [9] is 125%. In addition, the IC50 in [2] was found to be 0.11 µM. Also, in [3], the EC20 came out at 1.1 µM. For the same compound, the AUC at 4 h in data set [4] is 50 µM·h.
